Among the test systems are DU-145 prostate; MDA-MB-231 breast; MDA-MB-435; PC-3 prostate.
Holding throughout (assay): growth of human tumour cells (NCI), 48 h

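Method: 48-hour compound exposure of cells in 96-well plates, five concentrations, linear interpolation of endpoints. GI50: concentration for 50% inhibition of growth. TGI is the concentration that stops growth completely.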 A value given as a limit tells only on which side of the number the result lay.

As to `NC(CSC1(c2ccc(Cl)cc2)c2ccccc2-c2ccccc21)C(=O)O` (configuration not stated), the TGI was > 100 µM in the test on DU-145 prostate, 35.7 µM in the test with MDA-MB-231 breast, 35.3 µM in the test on MDA-MB-435 and 43.5 µM with PC-3 prostate.
In the case of `O=C(O)c1c[nH]c2c(ccc3[nH]cc(C(=O)O)c(=O)c32)c1=O`, the TGI in the test on DU-145 prostate, in the test on MDA-MB-231 breast, in the test with MDA-MB-435 and in the test on PC-3 prostate was > 100 µM each time.
For the compound `COc1cc2oc(-c3ccc(O)cc3)cc(=O)c2c(OC)c1O`, the TGI in the test on DU-145 prostate, in the test on MDA-MB-231 breast and in the test on MDA-MB-435 was > 100 µM each time.
In the case of `Clc1ccc(Nc2ncnc3c2sc2ncccc23)c(Cl)c1`, the GI50 in the test with DU-145 prostate is 0.0276 µM; with MDA-MB-231 breast it was > 100 µM; with MDA-MB-435, 0.0482 µM; in the test on PC-3 prostate it was 2.72 µM. Moreover, the TGI in the test on DU-145 prostate, in the test with MDA-MB-231 breast, in the test with MDA-MB-435 and with PC-3 prostate was > 100 µM in each case.
Regarding `C=C(C)[C@@H]1CC[C@]2(C(=O)N3CCN(C)CC3)CC[C@]3(C)[C@H](CC[C@@H]4[C@@]5(C)CC[C@H](O)C(C)(C)[C@@H]5CC[C@]43C)[C@@H]12`, the GI50 in the test with DU-145 prostate was 1.85 µM; with MDA-MB-231 breast it was 1.88 µM; in the test with MDA-MB-435 it was 1.8 µM; with PC-3 prostate, 1.74 µM. Besides, the TGI was 3.4 µM in the test on DU-145 prostate, 3.57 µM with MDA-MB-231 breast, 3.5 µM in the test with MDA-MB-435 and 3.48 µM in the test with PC-3 prostate.
In the case of `CCN(CC)CCNC(=O)C(Cl)=C1C(Cl)=C(Cl)C(Cl)=C1Cl`, the GI50 with DU-145 prostate was 2.78 µM; in the test on MDA-MB-231 breast, 3.83 µM; in the test on MDA-MB-435 it was 2.24 µM; in the test on PC-3 prostate it was 4.23 µM. Further, the TGI was determined as 10.8 µM in the test on DU-145 prostate, 31.3 µM in the test on MDA-MB-231 breast, 6.54 µM with MDA-MB-435 and 41.3 µM with PC-3 prostate.
With `CN1c2ccccc2S(=O)(=O)n2c(COc3ccccc3)nnc21`, the TGI in the test on DU-145 prostate, with MDA-MB-231 breast, in the test on MDA-MB-435 and in the test on PC-3 prostate was > 100 µM each time.
Take `C=CCCCC(O)c1ccc(C(O)c2cnc3ccccc3c2)o1` (configuration not stated): the GI50 is 40 µM in the test on DU-145 prostate, 27 µM with MDA-MB-231 breast, 22.5 µM in the test on MDA-MB-435 and 32.6 µM in the test with PC-3 prostate. The TGI with DU-145 prostate is > 100 µM; in the test with MDA-MB-231 breast, 69.9 µM; in the test on MDA-MB-435 it was 48.4 µM; with PC-3 prostate, > 100 µM.
Take `CCN(CC)CC(O)c1cc(-c2ccc(Cl)cc2)nc2cc(Cl)ccc12` (configuration not stated): the GI50 is 2.27 µM in the test on DU-145 prostate, 1.4 µM in the test on MDA-MB-231 breast, 1.71 µM with MDA-MB-435 and 2.08 µM in the test on PC-3 prostate. Further, the TGI worked out at 5.04 µM in the test on DU-145 prostate, 3.9 µM in the test with MDA-MB-231 breast, 3.32 µM with MDA-MB-435 and 5.98 µM with PC-3 prostate.
Turning to `CCC1OC(=O)CC(O)C(C)C(OC2OC(C)CC(N(C)C)C2O)C(CC=O)CC(C)C(=O)/C=C/C2(C)OC2C1C` (configuration not stated), the TGI in the test with DU-145 prostate was 61.2 µM; in the test on MDA-MB-231 breast, 53.8 µM; in the test on MDA-MB-435, 40.3 µM; in the test on PC-3 prostate, > 100 µM.
As to `Oc1[nH]c2ccccc2c1/C=c1/ccc2c(c1)N=C(c1cc(F)cc(F)c1)N=2`, the GI50 with DU-145 prostate was 10.2 µM; in the test with MDA-MB-231 breast, 3.63 µM; in the test on MDA-MB-435, 1.92 µM; with PC-3 prostate, 3.37 µM. Moreover, the TGI in the test on DU-145 prostate worked out at 22.2 µM; with MDA-MB-231 breast, 19.5 µM; in the test with MDA-MB-435, 5.08 µM; in the test with PC-3 prostate, 16.7 µM.
As to `Nc1nc(-c2ccc3ccccc3c2)cc(-c2cc(-c3ccc4ccccc4c3)nc(N)n2)n1`, the TGI in the test with DU-145 prostate, with MDA-MB-231 breast, in the test with MDA-MB-435 and with PC-3 prostate was > 100 µM throughout.
In the case of `COc1cc(OC)c(/C=C/C(=O)c2c(O)cc(OC)c(C3CCN(C)CC3)c2OC)c(OC)c1`, the GI50 is 1.75 µM with DU-145 prostate, 1.53 µM with MDA-MB-435 and 1.5 µM in the test on PC-3 prostate. For the same compound, the TGI with DU-145 prostate was 3.25 µM; in the test with MDA-MB-435, 2.92 µM; in the test on PC-3 prostate, 2.86 µM.
As for `Cc1cc2nc3c4cc([N+](=O)[O-])ccc4n(CCN(C)C)c3nc2cc1C`, the GI50 in the test on DU-145 prostate was 0.71 µM; in the test on MDA-MB-231 breast, 0.602 µM; in the test with MDA-MB-435 it was 0.635 µM; with PC-3 prostate, 0.548 µM. Besides, the TGI with DU-145 prostate is > 27.8 µM; in the test with MDA-MB-231 breast, > 32.7 µM; with MDA-MB-435, 1.96 µM; in the test with PC-3 prostate it was 10.7 µM.
`Cn1cc(-c2ccc3nnc(C(F)(F)c4ccc5ncccc5c4)n3n2)cn1`: the GI50 in the test with DU-145 prostate is 53.9 µM; in the test with MDA-MB-231 breast it was 34.2 µM; in the test on MDA-MB-435, 57.8 µM; in the test on PC-3 prostate, 85 µM. Also, the TGI with DU-145 prostate, in the test on MDA-MB-231 breast, in the test with MDA-MB-435 and in the test on PC-3 prostate was > 100 µM each time.
Take `COc1ccc(Nc2ncccc2C(=O)NCc2cn(Cc3cccc(Oc4ccccc4)c3)nn2)c(OC)c1`: the GI50 with DU-145 prostate is 3.52 µM; in the test on MDA-MB-231 breast it was 3.63 µM; in the test on MDA-MB-435, 0.24 µM; in the test on PC-3 prostate, 1.36 µM. The TGI was > 81.5 µM with DU-145 prostate, > 28.1 µM in the test with MDA-MB-231 breast, 0.707 µM in the test with MDA-MB-435 and > 100 µM with PC-3 prostate.
With `CC/C(=C(/CC)c1ccc(O)cc1)c1ccc(O)cc1`, the GI50 with DU-145 prostate is 10 µM; in the test with MDA-MB-231 breast, 10 µM; with MDA-MB-435, 1.87 µM; with PC-3 prostate it was 5.75 µM. In addition, the TGI came out at 22.4 µM with DU-145 prostate, 25.2 µM with MDA-MB-231 breast, 5.14 µM in the test on MDA-MB-435 and 50.9 µM in the test on PC-3 prostate.
In the case of `O=[N+]([O-])c1cccc([I+]c2ccccc2)c1`, the GI50 is 11.1 µM in the test with DU-145 prostate, 14.8 µM in the test with MDA-MB-231 breast, 11.6 µM in the test with MDA-MB-435 and 7.78 µM with PC-3 prostate. Also, the TGI was found to be 24.3 µM in the test with DU-145 prostate, 33.6 µM with MDA-MB-231 breast, 29.2 µM in the test with MDA-MB-435 and 26.1 µM in the test with PC-3 prostate.
